This is an account of results in article PMC11922053 (Science Advances, 2025).

Where a SMILES comes first, the peptide text is derived from it. Bridges are numbered along the chain shown (N, C = ends). [ ]: non-standard residue; d: D form. The star is where a group is joined. Biotin = O=C1N[C@H]2[C@H](CS[C@H]2CCCCC(=O)*)N1; 2Nal = N[C@@H](Cc1ccc2ccccc2c1)C(=O)O; Gly(cPent) = N[C@H](C(=O)O)C1CCCC1; Hyp = O=C(O)[C@@H]1C[C@@H](O)CN1; Pen = CC(C)(S)[C@H](N)C(=O)O; Api = NC1(C(=O)O)CCNCC1; Ahx = NCCCCCC(=O)O

For the series, the target named is chymotrypsin (Bos taurus, UniProt P00766). Kind of series: Protease stability assay with chymotrypsin. Format: in vitro ADME. Particulars: NCBP-4 versus CBP; 50:1 by mass, up to 30 min, LC-MS.

For the molecule `CC1(C)SSC[C@H](NC(=O)[C@H](Cc2ccccc2)NC(=O)[C@@H](NC(=O)[C@H](Cc2ccccc2)NC(=O)C2(NC(=O)[C@H](Cc3ccc4ccccc4c3)NC(=O)[C@H](CCCCN)NC(=O)CCCCCNC(=O)[C@@H](N)CCCCNC(=O)CCCC[C@@H]3SC[C@@H]4NC(=O)N[C@@H]43)CCNCC2)C2CCCC2)C(=O)N2C[C@H](O)C[C@H]2C(=O)N[C@@H](Cc2ccccc2)C(=O)N[C@@H](Cc2ccc(O)cc2)C(=O)N[C@@H](Cc2ccc(O)cc2)C(=O)N[C@@H](CCCCN)C(=O)N2C[C@H](O)C[C@H]2C(=O)N[C@@H]1C(=O)N[C@@H](CCCCN)C(N)=O` [NCBP-4] (H-K(Biotin)[Ahx]K[2Nal][Api]F[Gly(cPent)]FC[Hyp]FYYK[Hyp][Pen]K-NH2; disulfide 9-16; N-terminus assumed), the “fold increase in half-life with chymotrypsin relative to CBP” value stood at 40 fold.
